Reference: patent US8852554B2, “Radiolabelled PDE10 ligands” (Janssen Pharmaceutica NV, priority 2009, dated 2014)
Several values for one entry are separate records, joined by “and”; a condition that tells them apart may be missing. Equal entries are not always repeated.

Experiment: Biodistribution studies of the 18F tracers in rats
Assay type: in vivo, male Wistar rats
Details: rat
Experimental: Biodistribution studies were carried out in healthy male Wister rats (body weight 200-500 g) at 2 min, 30 min and 60 min post injection (p.i.) (n=3/time point). For |^18F|B-4 only the 2 min and 30 min time points were studied. […] Blood and major organs were collected in tared tubes and weighed. The radioactivity in blood, organs and other body parts was measured using an automated gamma counter. The distribution of radioactivity in different parts of the body at different time points p.i. of the tracer was calculated and expressed as percentage of injected dose (% ID), and as percentage of injected dose per gram tissue (% ID/g) for the selected organs. % ID is calculated as cpm in organ/total cpm recovered. For calculation of total radioactivity in blood, blood mass was assumed to be 7% of the body mass.

- retention in the PDE10A-rich region striatum (biodistribution studies): no significant retention
- % ID, Carcass (i.v., 2 min p.i.): 33.12 ± 2.3 % ID
- % ID, Cerebellum (i.v., 2 min p.i.): 0.09 % ID and 0.091 ± 0.018 % ID
- % ID, Cerebrum total (i.v., 2 min p.i.): 0.49 % ID and 0.490 ± 0.067 % ID
- % ID, Cortex (i.v., 2 min p.i.): 0.069 ± 0.008 % ID
- % ID, Heart (i.v., 2 min p.i.): 0.60 ± 0.1 % ID
- % ID, Hippocampus (i.v., 2 min p.i.): 0.018 ± 0.004 % ID
- % ID, Intestines (i.v., 2 min p.i.): 10.79 ± 1.5 % ID
- % ID, Kidneys (i.v., 2 min p.i.): 4.24 ± 0.5 % ID
- % ID, Liver (i.v., 2 min p.i.): 41.94 ± 2.2 % ID
- % ID, Lungs (i.v., 2 min p.i.): 0.92 ± 0.2 % ID
- % ID, Rest of cerebrum (i.v., 2 min p.i.): 0.367 ± 0.054 % ID
- % ID, Spleen + Pancreas (i.v., 2 min p.i.): 1.92 ± 0.2 % ID
- % ID, Stomach (i.v., 2 min p.i.): 3 % ID and 3.09 ± 0.1 % ID
- % ID, Striatum (i.v., 2 min p.i.): 0.036 ± 0.012 % ID
- % ID, Urine (i.v., 2 min p.i.): 0.09 ± 0.1 % ID
- % ID/g, Blood (i.v., 2 min p.i.): 0.21 ± 0.02 % ID/g
- % ID/g, Cerebellum (i.v., 2 min p.i.): 0.607 ± 0.019 % ID/g
- % ID/g, Cerebrum + Cerebellum (i.v., 2 min p.i.): 0.47 ± 0.03 % ID/g
- % ID/g, Cerebrum total (i.v., 2 min p.i.): 0.444 ± 0.026 % ID/g
- % ID/g, Cortex (i.v., 2 min p.i.): 0.734 ± 0.148 % ID/g
- % ID/g, Heart (i.v., 2 min p.i.): 0.76 ± 0.09 % ID/g
- % ID/g, Hippocampus (i.v., 2 min p.i.): 0.307 ± 0.041 % ID/g
- % ID/g, Liver (i.v., 2 min p.i.): 3.40 ± 0.31 % ID/g
- % ID/g, Lungs (i.v., 2 min p.i.): 0.69 ± 0.34 % ID/g
- % ID/g, Rest of cerebrum (i.v., 2 min p.i.): 0.411 ± 0.023 % ID/g
- % ID/g, Spleen + Pancreas (i.v., 2 min p.i.): 1.47 ± 0.15 % ID/g
- % ID/g, Striatum (i.v., 2 min p.i.): 0.648 ± 0.075 % ID/g
- total initial brain uptake (i.v., 2 min p.i.): 0.59 % ID
- % ID, Blood (i.v., 30 min p.i.): 2.40 ± 0.4 % ID
- % ID, Carcass (i.v., 30 min p.i.): 25.50 ± 2.1 % ID
- % ID, Cerebellum (i.v., 30 min p.i.): 0.028 ± 0.000 % ID
- % ID, Cerebrum total (i.v., 30 min p.i.): 0.172 ± 0.012 % ID
- % ID, Cortex (i.v., 30 min p.i.): 0.026 ± 0.004 % ID
- % ID, Heart (i.v., 30 min p.i.): 0.21 ± 0.0 % ID
- % ID, Hippocampus (i.v., 30 min p.i.): 0.006 ± 0.000 % ID
- % ID, Intestines (i.v., 30 min p.i.): 14.67 ± 3.3 % ID
- % ID, Kidneys (i.v., 30 min p.i.): 1.44 ± 0.2 % ID
- % ID, Liver (i.v., 30 min p.i.): 45.29 ± 5.2 % ID
- % ID, Lungs (i.v., 30 min p.i.): 0.42 ± 0.1 % ID
- % ID, Rest of cerebrum (i.v., 30 min p.i.): 0.127 ± 0.010 % ID
- % ID, Spleen + Pancreas (i.v., 30 min p.i.): 0.57 ± 0.2 % ID
- % ID, Stomach (i.v., 30 min p.i.): 10 % ID and 9.73 ± 1.7 % ID
- % ID, Striatum (i.v., 30 min p.i.): 0.013 ± 0.001 % ID
- % ID, Urine (i.v., 30 min p.i.): 0.29 ± 0.0 % ID
SMILES: Cc1cccc(COc2ccc(-c3nn(CC[18F])cc3-c3ccncc3)cc2)n1 [[^18F]B-1]
- 2 min/30 min ratios of % ID/g (normalized for body weight), all brain regions (i.v.): ≥ 2.49
- Clearance, 2 min/30 min ratio of % ID/g (normalized for body weight), Blood (i.v.): 1.65
- Clearance, 2 min/30 min ratio of % ID/g (normalized for body weight), Cerebellum (i.v.): 4.01
- Clearance, 2 min/30 min ratio of % ID/g (normalized for body weight), Cerebrum total (i.v.): 2.88
- Clearance, 2 min/30 min ratio of % ID/g (normalized for body weight), Cortex (i.v.): 3.47
- Clearance, 2 min/30 min ratio of % ID/g (normalized for body weight), Hippocampus (i.v.): 3.06
- Clearance, 2 min/30 min ratio of % ID/g (normalized for body weight), Rest of cerebrum (i.v.): 2.86
- Clearance, 2 min/30 min ratio of % ID/g (normalized for body weight), Striatum (i.v.): 2.49
- Clearance, 2 min/60 min ratio of % ID/g (normalized for body weight), Blood (i.v.): 1.83
- Clearance, 2 min/60 min ratio of % ID/g (normalized for body weight), Cerebellum (i.v.): 6.60
- Clearance, 2 min/60 min ratio of % ID/g (normalized for body weight), Cerebrum total (i.v.): 3.60
- Clearance, 2 min/60 min ratio of % ID/g (normalized for body weight), Cortex (i.v.): 5.55
- Clearance, 2 min/60 min ratio of % ID/g (normalized for body weight), Hippocampus (i.v.): 3.63
- Clearance, 2 min/60 min ratio of % ID/g (normalized for body weight), Rest of cerebrum (i.v.): 3.29
- Clearance, 2 min/60 min ratio of % ID/g (normalized for body weight), Striatum (i.v.): 3.41
- % ID/g normalized for body weight, Blood (i.v., 2 min p.i.): 0.06 ± 0.01 % ID/g × body wt. in kg
- % ID/g normalized for body weight, Cerebellum (i.v., 2 min p.i.): 0.164 ± 0.01 % ID/g × body wt. in kg
- % ID/g normalized for body weight, Cerebrum + Cerebellum (i.v., 2 min p.i.): 0.13 ± 0.01 % ID/g × body wt. in kg
- % ID/g normalized for body weight, Cerebrum total (i.v., 2 min p.i.): 0.120 ± 0.01 % ID/g × body wt. in kg
- % ID/g normalized for body weight, Cortex (i.v., 2 min p.i.): 0.199 ± 0.04 % ID/g × body wt. in kg
- % ID/g normalized for body weight, Heart (i.v., 2 min p.i.): 0.21 ± 0.02 % ID/g × body wt. in kg
- % ID/g normalized for body weight, Hippocampus (i.v., 2 min p.i.): 0.083 ± 0.01 % ID/g × body wt. in kg
- % ID/g normalized for body weight, Kidneys (i.v., 2 min p.i.): 0.47 ± 0.05 % ID/g × body wt. in kg
- % ID/g normalized for body weight, Liver (i.v., 2 min p.i.): 0.92 ± 0.05 % ID/g × body wt. in kg
- % ID/g normalized for body weight, Lungs (i.v., 2 min p.i.): 0.19 ± 0.08 % ID/g × body wt. in kg
- % ID/g normalized for body weight, Rest of cerebrum (i.v., 2 min p.i.): 0.111 ± 0.00 % ID/g × body wt. in kg
- % ID/g normalized for body weight, Spleen + Pancreas (i.v., 2 min p.i.): 0.40 ± 0.03 % ID/g × body wt. in kg
- % ID/g normalized for body weight, Striatum (i.v., 2 min p.i.): 0.175 ± 0.02 % ID/g × body wt. in kg
- striatum/blood ratio (from % ID/g normalized for body weight) (i.v., 2 min p.i.): 3.10
- striatum/cerebellum ratio (from % ID/g normalized for body weight) (i.v., 2 min p.i.): 1.07
- striatum/cortex ratio (from % ID/g normalized for body weight) (i.v., 2 min p.i.): 0.88
- striatum/hippocampus ratio (from % ID/g normalized for body weight) (i.v., 2 min p.i.): 2.11
- % ID/g normalized for body weight, Blood (i.v., 30 min p.i.): 0.03 ± 0.01 % ID/g × body wt. in kg
